In ChEMBL document CHEMBL5325414, “Novel neuroprotective pyromeconic acid derivatives with concurrent anti-Aβ deposition, anti-inflammatory, and anti-oxidation properties for treatment of Alzheimer's disease” (Eur J Med Chem, 2023):
pIC50: −log10 of the molar value. The source made the active and inactive calls. The rule behind the calls is not given here.

Experiments:
[1] = Tmax in Sprague-Dawley rat at 15 mg/kg, IG; assay type: ADME, organism-based; conditions: in vivo, po
[2] = test system: BV-2; test: Antioxidant activity in H2O2 treated mouse BV-2 cells assessed as nuclear translocation of NRF2 at 5 to 20 uM by immunofluorescence analysis; assay type: functional, cell-based; conditions: dose 5-20 µM
[3] = test system: Mus musculus; test: Anti alzheimer activity in scopolamine induced anxiety in ICR mouse assessed as improved cognitive function pretreated with scopolamine at 3 mg/kg, ip for 31 days followed by compound addition at 20 mg/kg, po at day 7 to 31 by morris water maze test; assay type: functional, organism-based; conditions: time 25.0 day
[4] = test system: BV-2; test: Effect of amyloid beta (1 to 42) indued apoptosis in mouse BV-2 cells assessed as necrotic cells at 2.5 uM measured by propidium iodide staining based flow cytometric analysis (reference value: 5.72%); assay type: functional
[5] = test system: BV-2; test: Effect of amyloid beta (1 to 42) indued apoptosis in mouse BV-2 cells assessed as viable cells at 10 uM measured by propidium iodide staining based flow cytometric analysis (reference value: 61.29%); assay type: functional; conditions: read-out: Activity
[6] = Drug concentration in plasma of Sprague-Dawley rat at 15 mg/kg, IG measured after 2 hrs; assay type: ADME, organism-based; conditions: po
[7] = test system: Mus musculus; test: In vivo effect on NRF2 expression in scopolamine induced cognitive impaired mouse assessed as reversal of NRF2 signalling in hippocampus treated at 20 mg/kg by immunoblot analysis; assay type: functional, organism-based
[8] = test system: Mus musculus; test: Anti alzheimer activity in scopolamine induced anxiety in ICR mouse assessed as increase in crossing time by measuring escape latency pretreated with scopolamine at 3 mg/kg, ip for 31 days followed by compound addition at 20 mg/kg, po at day 7 to 31 by morris water maze test; assay type: functional, organism-based; conditions: time 25.0 day
[9] = test system: BV-2; test: Effect of amyloid beta (1 to 42) indued apoptosis in mouse BV-2 cells assessed as early apoptotic cells at 10 uM measured by propidium iodide staining based flow cytometric analysis (reference value: 26.12%); assay type: functional
[10] = Drug concentration in hippocampus of Sprague-Dawley rat at 15 mg/kg, IG measured after 4 hrs; assay type: ADME, organism-based; conditions: po, read-out: Drug uptake
[11] = test system: BV-2; test: Effect on H2O2 induced reactive oxygen species in mouse BV-2 cells assessed as reduction of ROS generation at 10 uM by fluorescence microscopic analysis relative to control; assay type: functional; set-up: scale not given: the % may be the effect or the level left
[12] = test system: BV-2; test: Effect on H2O2 induced reactive oxygen species in mouse BV-2 cells assessed as reduction of ROS generation at 5 uM by fluorescence microscopic analysis relative to control; assay type: functional; set-up: scale not given: the % may be the effect or the level left
[13] = test system: Mus musculus; test: Neuroprotective effect in scopolamine induced cognitively impaired mouse assessed as recovery of decreased Nissl bodies in CA3 region at hippocampus at 20 mg/kg by Nissl staining analysis; assay type: functional, organism-based
[14] = test system: Mus musculus; test: Neuroprotective effect in scopolamine induced cognitively impaired mouse assessed as reversal of amyloid beta plaque deposition at 20 mg/kg by immunohistochemistry staining analysis; assay type: functional, organism-based
[15] = Metal chelating activity assessed as compound-Cu2+ complex formation by measuring shift at 1:1 at 50 uM in PBS buffer 7.4 by UV-vis spectrometric analysis
[16] = target: T1, Amyloid-beta precursor protein (Homo sapiens, UniProt P05067); test: Inhibition of amyloid beta (1 to 42) (unknown origin) self aggregation assessed as decrease in number of amyloid beta fibrils at 50 uM for 24 hrs
T1 sequence (P05067 whole entry): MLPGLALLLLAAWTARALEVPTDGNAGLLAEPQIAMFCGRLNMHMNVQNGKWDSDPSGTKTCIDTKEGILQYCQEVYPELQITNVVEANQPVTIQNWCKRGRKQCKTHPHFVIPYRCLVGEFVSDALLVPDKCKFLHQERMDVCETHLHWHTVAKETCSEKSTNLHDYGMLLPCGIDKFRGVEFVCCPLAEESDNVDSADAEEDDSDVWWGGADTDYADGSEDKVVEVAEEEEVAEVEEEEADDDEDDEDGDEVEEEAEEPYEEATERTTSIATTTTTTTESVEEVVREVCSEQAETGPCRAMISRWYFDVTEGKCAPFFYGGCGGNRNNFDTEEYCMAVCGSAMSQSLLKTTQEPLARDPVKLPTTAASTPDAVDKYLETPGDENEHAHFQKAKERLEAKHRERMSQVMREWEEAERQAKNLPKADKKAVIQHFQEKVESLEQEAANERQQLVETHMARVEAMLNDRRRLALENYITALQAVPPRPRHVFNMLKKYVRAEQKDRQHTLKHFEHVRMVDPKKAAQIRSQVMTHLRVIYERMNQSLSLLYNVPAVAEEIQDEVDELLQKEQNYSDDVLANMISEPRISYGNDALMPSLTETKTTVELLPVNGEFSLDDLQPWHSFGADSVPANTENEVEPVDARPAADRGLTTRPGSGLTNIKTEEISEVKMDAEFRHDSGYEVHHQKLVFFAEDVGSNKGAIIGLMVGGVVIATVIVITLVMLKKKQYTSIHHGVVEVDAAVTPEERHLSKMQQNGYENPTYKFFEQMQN

[17] = test system: BV-2; test: Effect of amyloid beta (1 to 42) indued apoptosis in mouse BV-2 cells assessed as early apoptotic cells at 2.5 uM measured by propidium iodide staining based flow cytometric analysis (reference value: 26.12%); assay type: functional
[18] = test system: Mus musculus; test: Anti alzheimer activity in scopolamine induced anxiety in ICR mouse assessed as decrease in chaotic behaviour pretreated with scopolamine at 3 mg/kg, ip for 31 days followed by compound addition at 20 mg/kg, po at day 7 to 31 by morris water maze test; assay type: functional, organism-based; conditions: time 25.0 day
[19] = test system: BV-2; test: Effect of amyloid beta (1 to 42) indued apoptosis in mouse BV-2 cells assessed as early apoptotic cells at 5 uM measured by propidium iodide staining based flow cytometric analysis (reference value: 26.12%); assay type: functional
[20] = test system: Mus musculus; test: In vivo antiinflammatory activity in scopolamine induced cognitive impaired ICR mouse assessed as decrease in Iba1 levels in hippocampus by immunoblot analysis; assay type: functional, organism-based
[21] = test system: Mus musculus; test: In vivo effect on HO-1 expression in scopolamine induced cognitive impaired mouse assessed as reversal of NRF2 signalling in hippocampus treated at 20 mg/kg by immunofluorescence analysis; assay type: functional, organism-based
[22] = Drug concentration in hippocampus of Sprague-Dawley rat at 15 mg/kg, IG measured after 2 hrs; assay type: ADME, organism-based; conditions: po, read-out: Drug uptake
[23] = Antioxidant activity by measuring oxygen radical absorbance capacity-fluorescein values; assay type: functional
[24] = Ratio of drug concentration in hippocampus to plasma of Sprague-Dawley rat at 15 mg/kg, IG measured after 0.083 hrs; assay type: ADME, organism-based; conditions: po
[25] = Drug concentration in plasma of Sprague-Dawley rat at 15 mg/kg, IG measured after 0.083 hrs; assay type: ADME, organism-based; conditions: po
[26] = Clearance in Sprague-Dawley rat at 15 mg/kg, IG; assay type: ADME, organism-based; conditions: in vivo, po
[27] = Ratio of drug concentration in hippocampus to plasma of Sprague-Dawley rat at 15 mg/kg, IG measured after 4 hrs; assay type: ADME, organism-based; conditions: po
[28] = test system: Mus musculus; test: In vivo antiinflammatory activity in scopolamine induced cognitive impaired ICR mouse assessed as decrease in GFAP levels in hippocampus by immunoblot analysis; assay type: functional, organism-based
[29] = test system: BV-2; test: Effect of amyloid beta (1 to 42) indued apoptosis in mouse BV-2 cells assessed as late apoptotic cells at 10 uM measured by propidium iodide staining based flow cytometric analysis (reference value: 6.88%); assay type: functional
[30] = Drug concentration in plasma of Sprague-Dawley rat at 15 mg/kg, IG measured after 4 hrs; assay type: ADME, organism-based; conditions: po
[31] = target: T1, Amyloid-beta precursor protein; test: Inhibition of Fe3+ induced of amyloid beta (1 to 42) aggregation (unknown origin)
[32] = Ratio of drug concentration in hippocampus to plasma of Sprague-Dawley rat at 15 mg/kg, IG measured after 1 hrs; assay type: ADME, organism-based; conditions: po
[33] = test system: Mus musculus; test: Antioxidant activity in scopolamine induced cognitive impaired mouse assessed as reversal of HO-1 level in cortex at 20 mg/kg; assay type: functional, organism-based
[34] = Acute toxicity in mouse assessed as change in behaviour at 2000 mg/kg, IG administered as single dose measured after 14 days; assay type: organism-based; conditions: in vivo, po, 336 h, time 14 day
[35] = target: T1, Amyloid-beta precursor protein; test: Inhibition of amyloid beta (1 to 42) (unknown origin) self aggregation assessed as shorter in amyloid fibrils compound addition at 50 uM after fibrilation for 24 hrs
[36] = target: T1, Amyloid-beta precursor protein; test: Inhibition of amyloid beta (1 to 42) (unknown origin) self aggregation
[37] = Half life in Sprague-Dawley rat at 15 mg/kg, IG; assay type: ADME, organism-based; conditions: in vivo, po
[38] = Acute toxicity in mouse assessed as histopathological change in liver at 2000 mg/kg, IG administered as single dose measured after 14 days measured by H and E staining analysis; assay type: organism-based; conditions: in vivo, po, 336 h, time 14 day
[39] = Acute toxicity in mouse assessed as lethal dose administered as single IG dose measured after 14 days measured by H and E staining analysis; conditions: in vivo, po, time 14 day
[40] = test system: BV-2; test: Effect of amyloid beta (1 to 42) indued apoptosis in mouse BV-2 cells assessed as necrotic cells at 10 uM measured by propidium iodide staining based flow cytometric analysis (reference value: 5.72%); assay type: functional

For `O=c1ccoc(/C=C/c2ccc(O)c(O)c2)c1O`, the Tmax [1] was 10.2 min, the Activity [2] was “Active” and the Activity [3] was “Active”. For the same compound, the Activity [4] was 0.16%, the viability at 10 µM [5] was 63.1% and the concentration at 2 h [6] was 0.99 ng/mL. The Activity [7] was “Active”, the Activity [8] was “Active” and the Activity [9] was 22.1%. It also gave a concentration at 4 h [10] of 4.89 ng/mL, an Activity [11] of 34.85% and an Activity [12] of 19.45%. For the same compound, the Activity [13] was “Active”, the Activity [14] was “Active” and the Activity [15] was “Active”. The inhibition [16] was “Active”, the Activity [17] was 13.4% and the Activity [18] was “Active”. The Activity [19] was 8.32%, the Activity [20] was “Active” and the Activity [21] was “Active”. It also gave a concentration at 2 h [22] of 6.37 ng/mL, an Activity index [23] of 2.65 and a Kp at 0.083 h [24] of 0.07. It also gave a concentration at 0.083 h [25] of 18.5 ng/mL, a CL/F [26] of 8020 mL/min/kg and a Kp at 4 h [27] of 5.62. The Activity [28] was “Active”, the Activity [29] was 6.82% and the concentration at 4 h [30] was 0.95 ng/mL. For the same compound, the pIC50 [31] was 5.01, the Kp at 1 h [32] was 5.04 and the Activity [33] was “Active”. The Activity [34] was “Non-Toxic”, the Activity [35] was “Active” and the pIC50 [36] was 4.95. For the same compound, the half-life [37] was 838 min, the Activity [38] was “Non-Toxic” and the LD50 at 336 h [39] was no less than 2000 mg/kg. The Activity [40] was 7.98%.
